# Results as given in patent publication US10167258B2, “Inhibitors of mitochondrial pyruvate dehydrogenase kinase isoforms 1-4 and uses thereof” (The Board of Regents of the University of Texas System, priority 2013, dated 2019).
# pIC50: −log10 of the molar value. Where two headings read alike, the source gives them in different places.
# Tests used:
# [1] = Solubility in DMSO used in the formulation; assay type: physicochemical; details: compared with PS8
# [2] = Food intake, body weight and fat mass of DIO mice; assay type: in vivo; details: 70 mg/kg/day
# Protocol: (§1) Six- to eight-week old C57BL/6J male mice were obtained from the local campus breeding colony at UT Southwestern Medical Center (Dallas, Tex.) and randomized into two groups: vehicle- and PS10-treated. Prior to the treatment, mice were fed with a 60% high-fat diet, which contained 32% saturated and 68% unsaturated fat (catalog number: D12492, Research Diet Inc. New Brunswick, N.J.), for eight to ten weeks to produce DIO animals. PS-10 was dissolved in 100% DMSO and then diluted to make a 10% DMSO aqueous solution containing 17.5% (w/v) (2-hydroxypropyl)-β-cyclodextrin for delivery. Animals were dosed at mid-day by intraperitoneal (IP) injections at 70 mg/kg using 1-ml syringe and 30-gauge needle. The length of the treatment is indicted in each experiment. At 10 h after the last injection, animals were euthanized using carbon dioxide asphyxiation followed by cervical dislocation and dissection. Blood was harvested by cardiac puncture and stored on ice. Acidified citrate dextrose (ACD) was used as an anticoagulant. Immediately after blood collection, heart, liver, kidneys and both hind-leg quadriceps muscles were removed and snap frozen in liquid nitrogen. Average ischemia time before organ harvest was about 2 to 3 min. Blood was centrifuged in an Eppendorf 5415R refrigerated microcentrifuge at 9,300×g for 5 min to isolate plasma, which was subsequently stored at −80° C.
# [3] = molecular target: PDK2 (Homo sapiens, UniProt Q15119); test: Assay for inhibition of PDK activity, PDK2; assay type: biochemical; parameters: made in house
# Protocol: Recombinant human PDK2 was expressed and purified as a N terminal His6-tagged SUMO fusion protein with a tobacco-etch-virus protease (TEV) cleavage site in front of the N-terminal PDK2 sequence (26), and was used directly for the activity assay and binding affinity analyses. […] The purified protein was concentrated to 35-40 mg/ml and stored at −80° C. in small aliquots. Recombinant human PDK1, PDK3 and PDK4 were expressed and purified as described previously (26).
# The remaining steps were described previously (26). IC50 values were obtained by the curve fitting of inhibition isotherms using Prism 6 (GraphPad software, Inc.).
# [4] = Half-life in vitro in hepatic S9 fractions; assay type: in vitro ADME; details: data not shown
# [5] = molecular target: T1, human PDK1 (Homo sapiens, UniProt Q15118); test: Assay for inhibition of PDK activity, PDK1; assay type: biochemical; details: absence of E2/E3BP core (−)
# T1 construct: made in house
# Protocol: Recombinant human PDK2 was expressed and purified as a N terminal His6-tagged SUMO fusion protein with a tobacco-etch-virus protease (TEV) cleavage site in front of the N-terminal PDK2 sequence (26), and was used directly for the activity assay and binding affinity analyses. For crystallization, the protein was subjected to a TEV-protease digestion, and the untagged PDK2 protein was purified on a Superdex 200 column in 20 mM Tris-HCl (pH 8.0), 150 mM NaCl and 5 mM DTT. The purified protein was concentrated to 35-40 mg/ml and stored at −80° C. in small aliquots. Recombinant human PDK1, PDK3 and PDK4 were expressed and purified as described previously (26).
# . The remaining steps were described previously (26). IC50 values were obtained by the curve fitting of inhibition isotherms using Prism 6 (GraphPad software, Inc.).
# [6] = system: DIO mice; test: Glucose tolerance test in DIO mice; assay type: in vivo; details: 70 mg/kg/day IP for 4 weeks, 1.5 g/kg glucose challenge
# Protocol: as §1
# Mice were fasted for 6 hours after compound treatment. Ten hours after compound administration, 1.5 g/kg of glucose was delivered intraperitoneally to mice. Tail vein serum samples were collected immediately before and 15, 30, 60 and 120 minutes after the glucose challenge. The glucose levels in serum samples were determined by a glucose meter.
# [7] = system: ChREBP; test: Hepatic nuclear ChREBP protein levels in PDK inhibitor-treated DIO mice; assay type: in vivo; details: 40 mg/kg/day by mini-pumps for 5 days
# Text: The antibody (from Santa Cruz) against the 95-kilodalton ChREBP is highly specific; no signal was detected in hepatic nuclear fractions from ChREBP KO mice. The reduced nuclear ChREBP protein levels correlate with curtailed liver-type pyruvate kinase (LPK) (FIG. 11B), the marker glycolytic enzyme tightly regulated by ChREBP^5. The increased PDC flux is indicated by diminished phosphorylation of the decarboxylase/dehydrogenase (E1)-α subunit of this enzyme complex (FIG. 11B); while the expression of this subunit is not affected (not shown). The glucose-sensitive transcription factor ChREBP discovered and cloned by the Uyeda group in 2001 (Yamashita et al., 2001) has emerged as a central regulator of lipogenesis in liver (Uyeda and Repa, 2006; Filhoulaud et al., 2013; Denechaud et al., 2008) and β-cells (Cha-Molstad et al., 2009; Kibbe et al., 2013) at the transcriptional level (Uyeda and Repa, 2006; Filhoulaud et al., 2013; Denechaud et al., 2008). […] Therefore, the inventors propose that increased glucose oxidation through PDC flux lowers hepatic glucose concentrations and attenuates nuclear ChREBP-mediated de novo lipogenesis in liver (FIG. 12A). […]
# [8] = molecular target: T2, N-terminal domain of human Hsp90 (Homo sapiens, UniProt P07900); test: Isothermal titration calorimetry (ITC), binding to Hsp90 N-terminal domain; details: read-out: Kd, nM for Hsp 90
# T2 construct: the N-terminal domain (residue 1-236) of human Hsp90; His6 (N); SUMO (N); made in house; host or cells: E. coli BL21
# Protocol: The sequence encoding the N-terminal domain was amplified and cloned into the pSUMO expression vector (Lifesensors, Malvern, Pa.). The fusion protein of His6-tagged SUMO-Hsp90 N-terminal domain was expressed in E. coli BL21 cells and purified with Ni-NTA resin (Qiagen) and on Superdex-200 column in 20 mM Tris.HCl, pH 7.5 and 500 mM NaCl.
# The PDK2 or Hsp90 N-terminal domain protein was dialyzed against one liter of the dialysis buffer containing 50 mM Tris-Cl, pH 7.5, 50 mM KCl, 1 mM MgCl2, and 0.5 mM β-mercaptoethanol. […] All of the ITC data were initially analyzed by the NITPIC program (32) to construct the baseline, followed by curve-fitting in Origin 7 to obtain binding parameters.
# [9] = system: HeLa cells; details: read-out: IC50 for the growth inhibition of HeLa cells
# T1 sequence (Q15118 29-436): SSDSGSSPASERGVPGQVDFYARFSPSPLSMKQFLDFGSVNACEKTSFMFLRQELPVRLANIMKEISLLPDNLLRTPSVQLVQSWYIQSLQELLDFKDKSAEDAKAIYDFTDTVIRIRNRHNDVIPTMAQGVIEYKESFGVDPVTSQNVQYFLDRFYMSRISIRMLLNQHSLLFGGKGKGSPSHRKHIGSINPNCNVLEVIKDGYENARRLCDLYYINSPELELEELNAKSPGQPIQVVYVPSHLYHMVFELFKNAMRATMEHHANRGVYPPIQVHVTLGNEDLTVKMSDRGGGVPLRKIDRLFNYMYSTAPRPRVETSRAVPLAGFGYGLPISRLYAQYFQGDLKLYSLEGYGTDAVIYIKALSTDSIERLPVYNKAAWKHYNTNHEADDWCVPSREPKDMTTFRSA
smiles,measurement,setting,value
"O=S(=O)(c1ccc(O)cc1O)N1Cc2cc(O)cc(O)c2C1 [PS10, 2-((2,4-dihydroxyphenyl)sulfonyl)isoindoline-4,6-diol]",solubility in DMSO,[1],better solubility in DMSO
same,body weight vs vehicle-treated,[2],no significant differences
same,fat-mass vs vehicle-treated,[2],reduction
same,food intake vs vehicle-treated,[2],no significant differences
same,IC50,"[3]; Table 1, inhibitor 31.6 nM to 1 mM, read-out: IC50, μM for PDK2",0.8 µM
same,pIC50,"[3]; absence of E2/E3BP core (−), read-out: IC50 for PDK2",6.10
same,half-life,[4],> 4 h
same,pIC50,[5],5.68
same,plasma glucose level at 0 min,[6],168 mg/dL
same,plasma glucose level at 30 min,[6],312 mg/dL
same,plasma glucose level at 120 min,[6],163 mg/dL
same,ChREBP protein levels in hepatic nuclear fractions,[7],drastically decreased
same,Kd,[8],47000 nM
same,pIC50,[9],3.55
